This experiment relates to R223X stop codon in the mutated luciferase gene, ADXC8 luciferase reporter cell line. Put plainly: cells. In kind it is cell-based. To be noted: ADXC8 cells, 24 hours; for Emax / EC (100% of 200 uM G418 response): 24 h; for Emax: read-out: Fold Over Control, maximum fold response relative to 200 μM G418; for EC (100% of 200 uM G418 response): read-out: pC100%, negative logarithm of the concentration giving the same response as 200 μM G418. The method, then:
The read-through activity of compounds was assessed using the ADXC8 luciferase reporter cell line (generated as described in McElroy et al. PLoS Biology (2013), 11, e1001593). […] The amount of luciferase is measured by adding a lysis buffer containing luciferin substrate and detecting luminescence using the following protocol:
ADXC8 cells in assay media (DMEM+10% FBS) were seeded into 96-well tissue culture treated white plates (Greiner) to a density of 13,000 cells per well and incubated for 24 hours at 37° C. in an atmosphere of 5% CO2. […] Plates were incubated for a further 24 hours at 37° C. in an atmosphere of 5% CO2. Cells treated with 200 μM G418 (with 1% DMSO) were used as a positive control.
Cell viability and firefly luciferase activity were measured in the same assay wells. CellTiter-Fluor™ reagent was prepared as per manufacturer's instructions (Promega E7120) and 20 μl of 5× CellTiter-Fluor™ reagent was added to all wells, briefly mixed by orbital shaking (300-500 rpm for −30 seconds) and the plates incubated for 30-45 minutes at 37° C. in an atmosphere of 5% C02. Cell viability was measured by monitoring fluorescence on a CLARIOstar® plate reader (BMG Labtech). Cells containing 1% DMSO were used as a positive control and cells with 400 μM Doxorubicin were used as negative control to define 100 and 0% respectively. ONE-Glo™ luciferase assay buffer (Promega E7120) was prepared according to manufacturer's instructions and 100 μl of luciferase reagent was added to each well and the plate incubated at RT for 3 mins before measuring the luminescence on the CLARIOstar® plate reader (BMG Labtech). Cells treated with 200 μM G418 (with 1% DMSO) were used as a positive control and arbitrarily assigned a value of 100%. Cells treated with 1% DMSO were used as the negative control to define 0% response.
Concentration effect curves were analysed using non-linear regression using the CDD Vault from Collaborative Drug Discovery (Burlingame, CA). […] The bottom and top of the curves were constrained to 0 and the maximum measured response respectively. From the fitted curves, the software derived C100% values (the concentration giving the same response as 200 μM G418) for each compound. The negative logarithm of C100% is reported as pC100% (Table 1). In addition to pC100% values, the maximum fold response relative to 200 μM G418 (Fold over Control) was also captured (Table 1). A pC100% categorisation of ‘-’ in Table 1 represents examples in which a pC100% response was not reached when assayed at a concentration of 100 μM. A pC100% categorisation of ‘*’ in Table 1 represents examples in which a pC100% response was not reached when assayed at a concentration of 30 μM.

Structures are written as SMILES. Where only a bound is given, the exact number is not on record here.

Turning to `Cc1cc(C)c2c(N)nc(NC3CCN(Cc4ccc(C#N)cc4F)CC3)nc2n1` [Example 571], the Emax was 100 to 3000% and the EC (100% of 200 uM G418 response) lay within 1 to 10 µM.
With `CNc1ccc(-c2ccc3c(N)nc(NC4CCN(C)CC4)nc3n2)cc1` [Example 53], the Emax was in the range of 100 to 3000% and the EC (100% of 200 uM G418 response) was 1 to 10 µM.
In the case of `Cc1cc(C)c2c(N)nc(NC3CC4(CCN(C(=O)OC(C)(C)C)CC4)C3)nc2n1` [Example 132], the Emax lay in the range of 0 to 100% and the EC (100% of 200 uM G418 response) is more than 100 µM.
On to `CCNc1nc(N[C@H]2CNC[C@@H]2F)nc2nc(C)cc(C)c12` [Example 394], for which the EC (100% of 200 uM G418 response) was 1 to 10 µM.
For `Cc1cc(C)c2c(N)nc(N[C@H]3CCN(C)C3)nc2n1` [Example 15, (S)-5,7-dimethyl-N^2-(1-methylpyrrolidin-3-yl)pyrido[2,3-d]pyrimidine-2,4-diamine], the Emax lay in the range of 100 to 3000% and the EC (100% of 200 uM G418 response) lay within 1 to 10 µM.
Consider `CCN1C[C@@H](F)[C@@H](Nc2nc(NC)c3c(C)cc(C)nc3n2)C1` [Example 628], for which the EC (100% of 200 uM G418 response) was 1 to 10 µM.
`CN1CCC(Nc2nc(N)c3ccc(-c4ccccc4)nc3n2)CC1` [Example 27, N^2-(1-methylpiperidin-4-yl)-7-phenylpyrido[2,3-d]pyrimidine-2,4-diamine]: the Emax lay within 100 to 3000% and the EC (100% of 200 uM G418 response) was in the range of 1 to 10 µM.
Regarding `Cc1nc2nc(NCCCN3CCOCC3)nc(N)c2c2c1CCC2` [Example 46, 6-methyl-N^3-(3-morpholinopropyl)-8,9-dihydro-7H-cyclopenta[4,5]pyrido[2,3-d]pyrimidine-1,3-diamine], the EC (100% of 200 uM G418 response) lay within 0.1 to 1 µM.
With `Cc1cc(C)c2c(N)nc(NC3CCNC(C)C3)nc2n1` (stereo not drawn) [Example 175], the Emax lay in the range of 100 to 3000% and the EC (100% of 200 uM G418 response) was 1 to 10 µM.
For the compound `[2H]C([2H])([2H])N1CCC(Nc2nc(N)c3c(C)cc(C)nc3n2)CC1` [Example 584], the EC (100% of 200 uM G418 response) fell in the range of 1 to 10 µM.
Regarding `Cc1cc(C)c2c(N)nc(NC3COC4(CNC4)C3)nc2n1` (stereo not drawn) [Example 210], the Emax lay within 100 to 3000% and the EC (100% of 200 uM G418 response) lay in the range of 1 to 10 µM.
Consider `COC(C)c1ccnc2nc(NC3CCN(C)CC3)nc(N)c12` (stereo not drawn) [Example 252, 5-(1-methoxyethyl)-N^2-(1-methylpiperidin-4-yl)pyrido[2,3-d]pyrimidine-2,4-diamine], for which the Emax lay within 0 to 100% and the EC (100% of 200 uM G418 response) was more than 100 µM.
In the case of `CNc1nc(N[C@H]2CN(C3CC3)C[C@H]2F)nc2nc(C)cc(C)c12` [Example 519, N^2-((3S,4R)-1-cyclopropyl-4-fluoropyrrolidin-3-yl)-N^4,5,7-trimethylpyrido[2,3-d]pyrimidine-2,4-diamine], the Emax was 0 to 100% and the EC (100% of 200 uM G418 response) was more than 31.6 µM.
As for `Cc1cc(C)c2c(N)nc(NC3CCN(Cc4ccccc4C(F)(F)F)CC3)nc2n1` [Example 490], the Emax lay within 100 to 3000% and the EC (100% of 200 uM G418 response) was in the range of 10 to 100 µM.
Consider `Cc1cc(C)c2c(N)nc(NCC3CCN(C)C3)nc2n1` (stereo not drawn) [Example 170], for which the Emax is 100 to 3000% and the EC (100% of 200 uM G418 response) is 10 to 100 µM.
With `CCN1C[C@H](Nc2nc(NC)c3c(C)cc(C)nc3n2)[C@@H](O)C1` [Example 626], the Emax lay in the range of 100 to 3000% and the EC (100% of 200 uM G418 response) lay within 1 to 10 µM.
Turning to `Cc1cc(C)c2c(N)nc(N[C@@H]3CCCC[C@H]3N(C)C)nc2n1` [Example 181], the Emax fell in the range of 0 to 100% and the EC (100% of 200 uM G418 response) was more than 31.6 µM.
For the compound `CNc1nc(N[C@H]2CN[C@@H](COC)C2)nc2nc(C)cc(C)c12` [Example 406], the EC (100% of 200 uM G418 response) was in the range of 1 to 10 µM.
With `CN1CCC(Nc2nc(N)c3ccc(-c4ncco4)nc3n2)CC1` [Example 119, N^2-(1-methylpiperidin-4-yl)-7-(oxazol-2-yl)pyrido[2,3-d]pyrimidine-2,4-diamine], the Emax is 100 to 3000% and the EC (100% of 200 uM G418 response) is 10 to 100 µM.
In the case of `CNc1nc(NC2CN(C)CC23CC3)nc2nc(C)cc(C)c12` (stereo not drawn) [Example 408], the EC (100% of 200 uM G418 response) fell in the range of 1 to 10 µM.
Still for that read-out and setting: next, `CNc1nc(N[C@H]2CN(C)C[C@@H]2O)nc2nc(C)c(Br)c(C)c12` [Example 615]: 1 to 10 µM.
As to `Cc1cc(C)c2c(N)nc(N[C@@H]3CCN(Cc4ccc(C#N)cc4)C[C@H]3O)nc2n1` [Example 558], the Emax fell in the range of 100 to 3000% and the EC (100% of 200 uM G418 response) fell in the range of 1 to 10 µM.
Take `Cc1cc(C)c2c(N)nc(NC3CCCN(C)CC3)nc2n1` (stereo not drawn) [Example 179]: the Emax is 100 to 3000% and the EC (100% of 200 uM G418 response) fell in the range of 1 to 10 µM.
Take `CNc1nc(N[C@@H]2CCN(C)C2)nc2nc(N(C)C)cc(C)c12` [Example 630]: the Emax was in the range of 100 to 3000% and the EC (100% of 200 uM G418 response) lay within 10 to 100 µM.
Regarding `CNc1nc(NC2CNCC2(F)F)nc2nc(C)cc(C)c12` (single isomer, unassigned) [Example 438], the “Fold Over Control” value (maximum fold response relative to 200 μM G418) was “# (Fold over Ctrl ≥ 0 ≤ 1)”. Moreover, for the setting “negative logarithm of the concentration giving the same response as 200 μM G418”, the pC100% entry is recorded as “* (pC100 ≤ 4.5)”.
In the case of `CNc1nc(N[C@H]2CN[C@H](CF)C2)nc2nc(C)cc(C)c12` [Example 413], the EC (100% of 200 uM G418 response) is 0.1 to 1 µM.
Turning to `CN1CCC(Nc2nc(N)c3ccc(-c4cccc(C(F)(F)F)c4)nc3n2)CC1` [Example 67], the Emax lay in the range of 100 to 3000% and the EC (100% of 200 uM G418 response) lay in the range of 1 to 10 µM.
For the compound `CNc1nc(N[C@H]2CN(C(C)C)C[C@H]2F)nc2nc(C)cc(C)c12` [Example 523, N^2-((3S,4R)-4-fluoro-1-isopropylpyrrolidin-3-yl)-N^4,5,7-trimethylpyrido[2,3-d]pyrimidine-2,4-diamine], the Emax lay within 100 to 3000% and the EC (100% of 200 uM G418 response) fell in the range of 1 to 10 µM.
As to `CC(C)c1ccnc2nc(NC3CCN(C)CC3)nc(N)c12` [Example 246, 5-isopropyl-N^2-(1-methylpiperidin-4-yl)pyrido[2,3-d]pyrimidine-2,4-diamine], the Emax lay within 0 to 100% and the EC (100% of 200 uM G418 response) was more than 100 µM.
Take `Cc1cc(C)c2c(N)nc(NC3CCN(Cc4cccc(C#N)c4)CC3)nc2n1` [Example 499]: the Emax was in the range of 100 to 3000% and the EC (100% of 200 uM G418 response) is 1 to 10 µM.
Take `CC(C)c1ccc2c(N)nc(NC3CCN(C)CC3)nc2n1` [Example 239, 7-isopropyl-N^2-(1-methylpiperidin-4-yl)pyrido[2,3-d]pyrimidine-2,4-diamine]: the Emax was in the range of 100 to 3000% and the EC (100% of 200 uM G418 response) lay in the range of 1 to 10 µM.
In the case of `CN1CCC(Nc2nc(N)c3cc4c(nc3n2)CCC4)CC1` [Example 275], the EC (100% of 200 uM G418 response) was 1 to 10 µM.
For `Cc1cc(C)c2c(N)nc(NC3CCN(Cc4cccc(F)c4O)CC3)nc2n1` [Example 566], the Emax is 100 to 3000% and the EC (100% of 200 uM G418 response) was in the range of 0.1 to 1 µM.
Consider `Cc1cc(C)c2c(N)nc(NC3CCN(Cc4ccc(S(C)(=O)=O)cc4)CC3)nc2n1` [Example 497], for which the Emax fell in the range of 100 to 3000% and the EC (100% of 200 uM G418 response) lay within 10 to 100 µM.
Regarding `Cc1cc(C)c2c(N)nc(NCCCN3CCS(=O)(=O)CC3)nc2n1` [Example 8, 4-(3-((4-amino-5,7-dimethylpyrido[2,3-d]pyrimidin-2-yl)amino)propyl)thiomorpholine 1,1-dioxide], the Emax is 0 to 100% and the EC (100% of 200 uM G418 response) was more than 100 µM.
`CN1CCC(Nc2nc(N)c3ccc(-c4ccccc4N(C)C)nc3n2)CC1` [Example 72]: the Emax was in the range of 0 to 100% and the EC (100% of 200 uM G418 response) is more than 100 µM.
Regarding `Cc1cc(C)c2c(N)nc(N[C@@H]3CCNC[C@H]3O)nc2n1` [Example 180], the Emax was in the range of 100 to 3000% and the EC (100% of 200 uM G418 response) lay within 1 to 10 µM.
In the case of `Cc1nc2nc(NC3CCN(Cc4cc(F)ccc4O)CC3)nc(N)c2c2c1CCC2` [Example 535], the Emax fell in the range of 100 to 3000% and the EC (100% of 200 uM G418 response) lay in the range of 0.1 to 1 µM.
On to `CNc1nc(N[C@@H]2CCN(C)C2)nc2nc3c(c(C)c12)CCO3` [Example 514, (R)—N^4,5-dimethyl-N^2-(1-methylpyrrolidin-3-yl)-6,7-dihydrofuro[3′,2′:5,6]pyrido[2,3-d]pyrimidine-2,4-diamine], for which the Emax lay within 100 to 3000% and the EC (100% of 200 uM G418 response) fell in the range of 1 to 10 µM.
